Data from patent US20090156577A1, “7-AMINO ALKYLIDENYL-HETEROCYCLIC QUINOLONES AND NAPHTHYRIDONES” (priority 2004, published 2009).
Converted amounts (≈) assume the structure as drawn. Counter-ions that a name gives are not always drawn. Like-named read-outs stand apart in the source and are kept apart here.

Tested on: pathogenic bacteria
Assay: MIC by microdilution broth method (NCCLS M7-A4), in vitro antibacterial activity
Format: cell-based
Method in brief: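 MIC read after 35 °C incubation for 16–20 h relative to drug-free growth wells. Cation-adjusted Mueller-Hinton broth with two-fold compound dilutions, organisms at roughly 5×10^4 CFU/well final. Method follows NCCLS document M7-A4.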

[1] = Staphylococcus aureus, Organism A: Staphylococcus aureus OC4172, read-out: MIC
[2] = Streptococcus pneumoniae, ATCC49619, Organism E: Streptococcus pneumoniae ATCC 49619, read-out: MIC
[3] = Streptococcus pneumoniae, Organism C: fluoroquinolone-resistant clinical isolate of Streptococcus pneumoniae (QRDR amino acid substitutions)
[4] = Streptococcus pneumoniae, Organism D: fluoroquinolone-resistant clinical isolate of Streptococcus pneumoniae (QRDR amino acid substitutions)
[5] = Streptococcus pneumoniae, Organism B: fluoroquinolone-resistant clinical isolate of Streptococcus pneumoniae (QRDR amino acid substitutions)

Structure (SMILES) | MIC [1] [µg/mL] | MIC [2] [µg/mL] | MIC [3] [µg/mL] | MIC [4] [µg/mL] | MIC [5] [µg/mL] | MIC (Organism A: Staphylococcus aureus OC4172) [µg/mL] | MIC (Organism C: fluoroquinolone-resistant clinical isolate of Streptococcus pneumoniae (QRDR amino acid substitutions)) [µg/mL] | MIC (Organism D: fluoroquinolone-resistant clinical isolate of Streptococcus pneumoniae (QRDR amino acid substitutions)) [µg/mL] | MIC (Organism E: Streptococcus pneumoniae ATCC 49619) [µg/mL]
COc1c(N2CCC(=C(F)CN)CC2)ccc2c(=O)c(C(=O)O)cn(C3CC3)c12 [Compound 10, 7-[4-(2-Amino-1-fluoro-ethylidene)-piperidin-1-yl]-1-cyclopropyl-8-methoxy-4-oxo-1,4-dihydro-quinoline-3-carboxylic acid] | 0.03 (≈ 0.0747 µM) | 0.12 (≈ 0.299 µM) | 0.5 (≈ 1.25 µM) | 1 (≈ 2.49 µM) |  |  |  |  | 
COc1c(N2CCOC/C(=C(/F)CN)C2)c(F)cc2c(=O)c(C(=O)O)cn(C3CC3)c12 [Compound 508, (E)-7-[6-(2-Amino-1-fluoro-ethylidene)-[1,4]oxazepan-4-yl]-1-cyclopropyl-6-fluoro-8-methoxy-4-oxo-1,4-dihydro-quinoline-3-carboxylic acid] | 0.12 (≈ 0.276 µM) | 1 (≈ 2.3 µM) | > 16 | 8 (≈ 18.4 µM) | ≤ 4 |  |  |  | 
NC/C(F)=C1\CCCN(c2nc3c(cc2F)c(=O)c(C(=O)O)cn3C2CC2)CC1 [Compound 495, (Z)-7-[4-(2-Amino-1-fluoro-ethylidene)-azepan-1-yl]-1-cyclopropyl-6-fluoro-4-oxo-1,4-dihydro-[1,8]naphthyridine-3-carboxylic acid] | 0.25 (≈ 0.618 µM) | 1 (≈ 2.47 µM) | 2 (≈ 4.95 µM) |  |  |  |  |  | 
COc1c(N2CCC/C(=C(\F)CN)C2)c(F)cc2c(=O)c(C(=O)O)cn(C3CC3)c12 [Compound 303, (E)-7-[3-(2-Amino-1-fluoro-ethylidene)-piperidin-1-yl]-1-cyclopropyl-6-fluoro-8-methoxy-4-oxo-1,4-dihydro-quinoline-3-carboxylic Acid Trifluoroacetic Acid Salt] | ≤ 0.015 | 0.03 | 0.12 | 0.25 | 0.25 |  |  |  | 
Nc1nc(-n2cc(C(=O)O)c(=O)c3cc(F)c(N4CCC(=C(F)CO)CC4)c(Cl)c32)c(F)cc1F [Compound 417, 1-(6-Amino-3,5-difluoro-pyridin-2-yl)-8-chloro-6-fluoro-7-[4-(1-fluoro-2-hydroxy-ethylidene)-piperidin-1-yl]-4-oxo-1,4-dihydro-quinoline-3-carboxylic acid] | 0.03 (≈ 0.0585 µM) | 0.5 (≈ 0.975 µM) | > 16 | 4 (≈ 7.8 µM) | 8 (≈ 15.6 µM) |  |  |  | 
C/C(CN)=C1\CCCN(c2c(F)cc3c(=O)c(C(=O)O)cn4c3c2OC[C@@H]4C)C1 [Compound 404, (Z)-9-[3-(2-Amino-1-methyl-ethylidene)-piperidin-1-yl]-8-fluoro-(3S)-3-methyl-6-oxo-2,3-dihydro-6H-1-oxa-3a-aza-phenalene-5-carboxylic acid] | 0.12 (≈ 0.299 µM) | 0.5 (≈ 1.25 µM) | 16 (≈ 39.9 µM) | > 16 | 4 (≈ 9.96 µM) |  |  |  | 
C/C(CN)=C1\CCCN(c2cc3c(cc2F)c(=O)c(C(=O)O)cn3C2CC2)C1 [Compound 301, (Z)-7-[3-(2-Amino-1-methyl-ethylidene)-piperidin-1-yl]-1-cyclopropyl-6-fluoro-4-oxo-1,4-dihydro-quinoline-3-carboxylic acid] | 0.12 (≈ 0.311 µM) | 0.25 (≈ 0.649 µM) | 8 (≈ 20.8 µM) | 8 (≈ 20.8 µM) | 8 (≈ 20.8 µM) |  |  |  | 
CC(C)NCC(Cl)=C1CCN(c2c(F)cc3c(=O)c(C(=O)O)cn(C4CC4)c3c2OC(F)F)CC1 [Compound 250, 7-[4-(1-Chloro-2-isopropylamino-ethylidene)-piperidin-1-yl]-1-cyclopropyl-8-difluoromethoxy-6-fluoro-4-oxo-1,4-dihydro-quinoline-3-carboxylic acid] | 0.25 (≈ 0.486 µM) | 0.5 (≈ 0.973 µM) | 8 (≈ 15.6 µM) | 0.5 (≈ 0.973 µM) |  |  |  |  | 
CCC(CN)=C1CCN(c2nc3c(cc2F)c(=O)c(C(=O)O)cn3C2CC2)CC1 [Compound 69, 7-[4-(1-Aminomethyl-propylidene)-piperidin-1-yl]-1-cyclopropyl-6-fluoro-4-oxo-1,4-dihydro-[1,8]naphthyridine-3-carboxylic acid] | 0.06 (≈ 0.15 µM) | 0.25 (≈ 0.624 µM) | 1 (≈ 2.5 µM) | 2 (≈ 4.99 µM) |  |  |  |  | 
COc1c(N2CCC/C(=C(\Cl)CN)CC2)c(F)cc2c(=O)c(C(=O)O)cn(C3CC3)c12 [Compound 394, (E)-7-[4-(2-Amino-1-chloro-ethylidene)-azepan-1-yl]-1-cyclopropyl-6-fluoro-8-methoxy-4-oxo-1,4-dihydro-quinoline-3-carboxylic acid] | 0.03 (≈ 0.0667 µM) | 0.5 (≈ 1.11 µM) | 4 (≈ 8.89 µM) | 1 (≈ 2.22 µM) | 1 (≈ 2.22 µM) |  |  |  | 
COc1c(N2CCC/C(=C(\F)CN)CC2)c(F)cc2c(=O)c(C(=O)O)cn(C3CC3)c12 [Compound 506, (E)-7-[4-(2-Amino-1-fluoro-ethylidene)-azepan-1-yl]-1-cyclopropyl-6-fluoro-8-methoxy-4-oxo-1,4-dihydro-quinoline-3-carboxylic acid] | ≤ 0.015 | 0.25 (≈ 0.577 µM) | 2 (≈ 4.61 µM) |  |  |  |  |  | 
CNCC(C)=C1CCN(c2cc3c(cc2F)c(=O)c(C(=O)O)cn3C2CC2)CC1 [Compound 219, 1-Cyclopropyl-6-fluoro-7-[4-(1-methyl-2-methylamino-ethylidene)-piperidin-1-yl]-4-oxo-1,4-dihydro-quinoline-3-carboxylic acid] |  |  |  |  | 8 (≈ 20 µM) | 0.5 (≈ 1.25 µM) | 8 (≈ 20 µM) | 4 (≈ 10 µM) | 0.5 (≈ 1.25 µM)
NCC(F)=C1CN(c2c(F)cc3c(=O)c(C(=O)O)cn(C4CC4)c3c2OC(F)F)C1 [Compound 160, 7-[3-(2-Amino-1-fluoro-ethylidene)-azetidin-1-yl]-1-cyclopropyl-8-difluoromethoxy-6-fluoro-4-oxo-1,4-dihydro-quinoline-3-carboxylic acid] | 0.06 (≈ 0.14 µM) | 0.12 (≈ 0.281 µM) | 2 (≈ 4.68 µM) | 1 (≈ 2.34 µM) | 2 (≈ 4.68 µM) |  |  |  | 
C[C@H]1COc2c(N3CCC(=C(C#N)CN)CC3)c(F)cc3c(=O)c(C(=O)O)cn1c23 [Compound 435, 9-[4-(2-Amino-1-cyano-ethylidene)-piperidin-1-yl]-8-fluoro-(3S)-3-methyl-6-oxo-2,3-dihydro-6H-1-oxa-3a-aza-phenalene-5-carboxylic Acid] | 0.12 (≈ 0.291 µM) | 0.5 (≈ 1.21 µM) | 4 (≈ 9.7 µM) | 8 (≈ 19.4 µM) |  |  |  |  | 
N#CC(CN)=C1CCN(c2c(F)cc3c(=O)c(C(=O)O)cn(C4CC4)c3c2OC(F)F)CC1 [Compound 437, 7-[4-(2-Amino-1-cyano-ethylidene)-piperidin-1-yl]-1-cyclopropyl-6-fluoro-8-difluoromethoxy-4-oxo-1,4-dihydro-quinoline-3-carboxylic Acid] | 0.06 (≈ 0.13 µM) | 0.12 (≈ 0.259 µM) | 1 (≈ 2.16 µM) | 0.25 (≈ 0.541 µM) |  |  |  |  | 
CC1COc2c(N3CCC(=C(F)CN)CC3)c(F)cc3c(=O)c(C(=O)O)cn1c23 (stereo not shown) [Compound 8, 9-[4-(2-Amino-1-fluoro-ethylidene)-piperidin-1-yl]-8-fluoro-3-methyl-6-oxo-2,3-dihydro-6H-1-oxa-3a-aza-phenalene-5-carboxylic acid] | 0.25 (≈ 0.617 µM) | 0.5 (≈ 1.23 µM) | 8 (≈ 19.7 µM) | 8 (≈ 19.7 µM) | 2 (≈ 4.93 µM) |  |  |  | 
C[C@H]1COc2c(N3CC(=C(Cl)CO)C3)c(F)cc3c(=O)c(C(=O)O)cn1c23 [Compound 362, (S)-9-[3-(1-Chloro-2-hydroxy-ethylidene)-azetidin-1-yl]-8-fluoro-3-methyl-6-oxo-2,3-dihydro-6H-1-oxa-3a-aza-phenalene-5-carboxylic Acid] | 0.03 (≈ 0.076 µM) | 0.5 (≈ 1.27 µM) | > 16 | 8 (≈ 20.3 µM) | 8 (≈ 20.3 µM) |  |  |  | 
